The IC50 is the concentration that gives 50% inhibition.

These results are taken from patent US8501936B2 (priority 2009, dated 2013).

human JAK2, sequence (O60674 815-1132): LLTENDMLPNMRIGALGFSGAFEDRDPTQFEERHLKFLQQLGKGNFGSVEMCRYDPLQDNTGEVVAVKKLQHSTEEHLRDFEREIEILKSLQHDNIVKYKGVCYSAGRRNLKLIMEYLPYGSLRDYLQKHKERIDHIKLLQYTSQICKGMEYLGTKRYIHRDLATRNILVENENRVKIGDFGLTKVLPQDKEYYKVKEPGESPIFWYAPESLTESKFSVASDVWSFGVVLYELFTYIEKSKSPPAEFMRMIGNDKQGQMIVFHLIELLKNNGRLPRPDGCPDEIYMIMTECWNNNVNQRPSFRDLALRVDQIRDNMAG

The first assay deals with human FAK (Homo sapiens (Human), UniProt Q05397). Conditions: read-out: FAK IC50.
human FAK, sequence (Q05397 whole entry): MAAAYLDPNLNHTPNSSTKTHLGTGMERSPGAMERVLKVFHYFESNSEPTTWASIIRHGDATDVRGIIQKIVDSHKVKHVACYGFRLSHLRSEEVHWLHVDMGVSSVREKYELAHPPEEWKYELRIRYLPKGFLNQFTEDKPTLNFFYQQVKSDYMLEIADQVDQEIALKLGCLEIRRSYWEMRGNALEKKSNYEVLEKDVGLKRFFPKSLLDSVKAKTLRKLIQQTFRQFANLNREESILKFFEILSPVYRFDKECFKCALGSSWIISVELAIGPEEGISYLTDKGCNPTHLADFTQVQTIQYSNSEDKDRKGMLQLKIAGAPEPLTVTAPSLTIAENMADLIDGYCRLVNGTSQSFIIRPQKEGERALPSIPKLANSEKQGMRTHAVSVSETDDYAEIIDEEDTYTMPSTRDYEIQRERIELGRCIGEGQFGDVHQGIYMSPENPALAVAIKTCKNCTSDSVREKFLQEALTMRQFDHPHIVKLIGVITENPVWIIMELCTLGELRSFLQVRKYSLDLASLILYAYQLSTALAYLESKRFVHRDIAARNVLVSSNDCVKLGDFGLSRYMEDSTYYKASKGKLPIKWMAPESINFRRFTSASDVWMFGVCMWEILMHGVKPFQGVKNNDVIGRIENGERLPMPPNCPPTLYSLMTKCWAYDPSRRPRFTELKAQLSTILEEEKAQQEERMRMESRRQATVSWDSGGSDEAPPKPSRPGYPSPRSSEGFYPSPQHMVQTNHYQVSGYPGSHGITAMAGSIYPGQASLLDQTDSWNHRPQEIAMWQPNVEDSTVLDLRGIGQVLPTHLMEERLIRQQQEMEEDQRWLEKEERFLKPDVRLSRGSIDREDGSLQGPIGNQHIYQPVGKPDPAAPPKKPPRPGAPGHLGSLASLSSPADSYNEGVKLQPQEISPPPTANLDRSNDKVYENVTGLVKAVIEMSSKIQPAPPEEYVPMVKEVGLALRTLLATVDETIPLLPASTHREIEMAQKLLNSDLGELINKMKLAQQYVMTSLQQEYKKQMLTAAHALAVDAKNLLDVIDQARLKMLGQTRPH
On to `COc1ccc(Nc2nc3c(-c4ccc(S(C)(=O)=O)cc4)cccn3n2)cc1` [Example 19, [8-(4-Methanesulfonyl-phenyl)-[1,2,4]triazolo[1,5-a]pyridin-2-yl]-(4-methoxy-phenyl)-amine], for which the IC50 was found to be 1.58 µM.
On to `CS(=O)(=O)c1ccc(-c2cccn3nc(Nc4ccc(N5CCC(N6CCOCC6)CC5)cc4)nc23)cc1` [Example 49, [8-(4-Methanesulfonyl-phenyl)-[1,2,4]triazolo[1,5-a]pyridin-2-yl]-[4-(4-morpholin-4-yl-piperidin-1-yl)-phenyl]-amine], for which the IC50 came to 0.251 µM.
Consider `CN1CCN(c2ccc(Nc3nc4c(-c5ccc(S(=O)(=O)N(C)C)cc5)cccn4n3)cc2)CC1` [Example 54, N,N-Dimethyl-4-{2-[4-(4-methyl-piperazin-1-yl)-phenylamino]-[1,2,4]triazolo[1,5-a]pyridin-8-yl}-benzenesulfonamide], for which the IC50 is 0.787 µM.
Consider `CS(=O)(=O)c1ccccc1Nc1nc2c(Nc3ccccc3S(C)(=O)=O)cccn2n1` [Example 69, N(2),N(8)-Bis-(2-methanesulfonyl-phenyl)-[1,2,4]triazolo[1,5-a]pyridine-2,8-diamine], for which the 50% inhibitory concentration (IC50) stood at 6.5 µM.
Same read-out and setting: in the case of `CS(=O)(=O)c1cccc(-c2cccc3nc(Nc4ccc(CN5CCOCC5)cc4)nn23)c1` [Example 87, [5-(3-Methanesulfonyl-phenyl)-[1,2,4]triazolo[1,5-a]pyridin-2-yl]-(4-morpholin-4-ylmethyl-phenyl)-amine] it was 0.341 µM.
Still for that read-out and setting: in the case of `CN1CCN(c2cncc(Nc3nc4cncc(-c5ccc(S(C)(=O)=O)cc5)n4n3)c2)CC1` [Example 108, [5-(4-Methanesulfonyl-phenyl)-[1,2,4]triazolo[1,5-a]pyrazin-2-yl]-[5-(4-methyl-piperazin-1-yl)-pyridin-3-yl]-amine] it was 3.37 µM.
With `CN1CCN(c2ccc(Nc3nc4c(Nc5cccc(S(C)(=O)=O)c5)cccn4n3)cc2)CC1` [Example 109, N(8)-(3-Methanesulfonyl-phenyl)-N(2)-[4-(4-methyl-piperazin-1-yl)-phenyl]-[1,2,4]triazolo[1,5-a]pyridine-2,8-diamine], the IC50 worked out at 10 µM.
Consider `CN1CCN(c2ccc(Nc3nc4c(-c5cccc(N(C)S(C)(=O)=O)c5)cccn4n3)cc2)CC1` [Example 127, N-Methyl-N-(3-{2-[4-(4-methyl-piperazin-1-yl)-phenylamino]-[1,2,4]triazolo[1,5-a]pyridin-8-yl}-phenyl)-methanesulfonamide], for which the IC50 is 3.13 µM.
Take `CN1C(=O)Cc2cc(Nc3nc4c(NCc5cccnc5N(C)S(C)(=O)=O)cccn4n3)ccc21` [Example 146, N-Methyl-N-(3-{[2-(1-methyl-2-oxo-2,3-dihydro-1H-indol-5-ylamino)-[1,2,4]triazolo[1,5-a]pyridin-8-ylamino]-methyl}-pyridin-2-yl)-methanesulfonamide]: the IC50 turned out to be 0.106 µM.
Consider `CN1CCN(c2cccc(Nc3nc4c(NCc5ccccc5N(C)S(C)(=O)=O)cccn4n3)c2)CC1` [Example 148, N-Methyl-N-[2-({2-[3-(4-methyl-piperazin-1-yl)-phenylamino]-[1,2,4]triazolo[1,5-a]pyridin-8-ylamino}-methyl)-phenyl]-methanesulfonamide], for which the half-maximal inhibitory concentration (IC50) is 0.0146 µM.
For the compound `CN1CCC(c2ccc(Nc3nc4c(NCc5ccccc5CN(C)S(C)(=O)=O)cccn4n3)cc2)CC1` [Example 159, N-Methyl-N-[2-({2-[4-(1-methyl-piperidin-4-yl)-phenylamino]-[1,2,4]triazolo[1,5-a]pyridin-8-ylamino}-methyl)-benzyl]-methanesulfonamide], the half-maximal inhibitory concentration (IC50) came out at 0.538 µM.
On the same count and under the same terms, in the case of `CN1CCN(c2ccc(Nc3nc4c(NCC5CCCN5S(C)(=O)=O)cccn4n3)cc2)CC1` (stereo not shown) [Example 170, N(8)-(1-Methanesulfonyl-pyrrolidin-2-ylmethyl)-N(2)-[4-(4-methyl-piperazin-1-yl)-phenyl]-[1,2,4]triazolo[1,5-a]pyridine-2,8-diamine] it was 0.872 µM; in that of `CS(=O)(=O)c1ccc(-c2cccn3nc(Nc4cccc(C5CCNCC5)c4)nc23)cc1` [Example 182, [8-(4-Methanesulfonyl-phenyl)-[1,2,4]triazolo[1,5-a]pyridin-2-yl]-(3-piperidin-4-yl-phenyl)-amine], 1 µM.
For the compound `CS(=O)(=O)CCN1CCC(c2cccc(Nc3nc4c(-c5ccc(S(C)(=O)=O)cc5)cccn4n3)c2)CC1` [Example 190, {3-[1-(2-Methanesulfonyl-ethyl)-piperidin-4-yl]-phenyl}-[8-(4-methanesulfonyl-phenyl)-[1,2,4]triazolo[1,5-a]pyridin-2-yl]-amine], the IC50 came out at 0.58 µM.
The same measure, in the same setting: in the case of `CCN1CCN(c2cccc(Nc3nc4c(-c5ccc(S(C)(=O)=O)cc5)cccn4n3)c2)C(=O)C1` [Example 205, 4-Ethyl-1-{3-[8-(4-methanesulfonyl-phenyl)-[1,2,4]triazolo[1,5-a]pyridin-2-ylamino]-phenyl}-piperazin-2-one] it was 10 µM; in that of `CCn1cc(Nc2nc3c(-c4ccc(C(F)(F)F)cc4)cccn3n2)cn1` [Example 215, (1-Ethyl-1H-pyrazol-4-yl)-[8-(4-trifluoromethyl-phenyl)-[1,2,4]triazolo[1,5-a]pyridin-2-yl]-amine], 10 µM.
On the same count and under the same terms, for `COc1cc(C(F)(F)F)ccc1-c1cccc2nc(Nc3ccc4c(c3)CCN(CCS(C)(=O)=O)CC4)nn12` [Example 238] the value was 1.95 µM.
Consider `FC1(F)Oc2cccc(-c3cccn4nc(Nc5ccc6c(c5)CCNCC6)nc34)c2O1` [Example 244, [8-(2,2-difluoro-1,3-benzodioxol-4-yl)-[1,2,4]triazolo[1,5-a]pyridin-2-yl]-(2,3,4,5-tetrahydro-1H-3-benzazepin-7-yl)amine], for which the half-maximal inhibitory concentration (IC50) worked out at 6.5 µM.
Same read-out and setting: in the case of `CN1CCN(c2ccc(Nc3nc4c(OCc5cccc(Cl)c5)cccn4n3)cc2)CC1` [Example 260, [8-(3-Chloro-benzyloxy)-[1,2,4]triazolo[1,5-a]pyridin-2-yl]-[4-(4-methyl-piperazin-1-yl)-phenyl]-amine] it was 1.1 µM.
For the compound `CN1CCN(c2cccc(Nc3nc4c(OCc5ccccc5C#N)cccn4n3)c2)CC1` [Example 263, 2-{2-[3-(4-Methyl-piperazin-1-yl)-phenylamino]-[1,2,4]triazolo[1,5-a]pyridin-8-yloxymethyl}-benzonitrile], the half-inhibitory concentration (IC50) was 3 µM.
Turning to `Fc1ccc(C(F)(F)F)cc1-c1cccn2nc(Nc3ccc4c(c3)CCNCC4)nc12` [Example 270, [8-(2-Fluoro-5-trifluoromethyl-phenyl)-[1,2,4]triazolo[1,5-a]pyridin-2-yl]-[2,3,4,5-tetrahydro-1H-benzo[d]azopin-7-yl]-amine], the IC50 was 6.5 µM.
With `O=c1[nH]cccc1-c1cccn2nc(Nc3ccc4ncccc4c3)nc12` [Example 276, 3-[2-(Quinolin-6-ylamino)-[1,2,4]triazolo[1,5-a]pyridin-8-yl]-1H-pyridin-2-one], the IC50 stood at 10 µM.
Still for that read-out and setting: for `CN(C)C(=O)CN1CCC(c2ccc(Nc3nc4c(-c5cnn(-c6ccc(F)cc6)c5)cccn4n3)cc2)CC1` [Example 283, 2-[4-(4-{8-{1-(4-Fluoro-phenyl)1H-pyrazol-4-yl}-[1,2,4]triazolo[1,5-a]pyridine-2-ylamino}-phenyl)-piperidin-1-yl]-N,N-dimethyl-acetamide] the value was 1.37 µM.
Turning to `CC(C)Oc1ccccc1-c1cccn2nc(Nc3ccc4c(c3)CCNCC4)nc12` [Example 299, [8-(2-Isopropoxy-phenyl]-[1,2,4]triazolo[1,5a]pyridine-2-yl]-(2,3,4,5-tetrahydro-benzo[d]azepin-7-yl)-amine], the IC50 is 0.999 µM.
Same read-out and setting: for `CC(C)Oc1ccc(C(F)(F)F)cc1-c1cccn2nc(Nc3ccc4c(c3)CCN(CC(=O)N(C)C)CC4)nc12` [Example 326, 2-{7-[8-(2-Isopropoxy-5-trifluoromethyl-phenyl)-[1,2,4]triazolo[1,5-a]pyridin-2-ylamino]-1,2,4,5-tetrahydro-3-benzazepin-3-yl}-N,N-dimethyl-acetamide] the value was 5.5 µM.
The same measure, in the same setting: in the case of `COc1cccc(-c2cccn3nc(Nc4ccc5c(c4)CNC5)nc23)c1` [Example 346, (2,3-Dihydro-1H-isoindol-5-yl)-[8-(3-methoxy-phenyl)-[1,2,4]-triazolo[1,5-a]pyridin-2-yl]-amine] it was 0.999 µM; in that of `FC(F)COc1ccccc1-c1cccn2nc(Nc3ccc4c(c3)CCNCC4)nc12` [Example 367, {8-[2-(2,2-Difluoro-ethoxy)-phenyl]-[1,2,4]triazolo[1,5-a]pyridin-2-yl}-(2,3,4,5-tetrahydro-1H-3-benzazepin-7-yl)-amine], 1.91 µM.
For the compound `CC(C)COc1ccc(C(F)(F)F)cc1-c1cccn2nc(Nc3ccc4c(c3)CCNCC4)nc12` [Example 379, [8-(2-Isobutoxy-5-trifluoromethyl-phenyl)-[1,2,4]triazolo[1,5-a]pyridin-2-yl]-(2,3,4,5-tetrahydro-1H-3-benzazepin-7-yl)-amine], the IC50 came out at 3 µM.
The same measure, in the same setting: in the case of `COc1cccc(CNc2cccn3nc(Nc4ccncc4)nc23)c1` [Example 399, N(8)-(3-Methoxy-benzyl)-N(2)-pyridin-4-yl-[1,2,4]triazolo[1,5-a]pyridine-2,8-diamine] it was 10 µM; in that of `COc1ccccc1CNc1cccn2nc(Nc3ccncc3)nc12` [Example 401, N(8)-(2-Methoxy-benzyl)-N(2)-pyridin-4-yl-[1,2,4]triazolo[1,5-a]pyridine-2,8-diamine], 6.5 µM; in that of `COc1ccc(C(F)(F)F)cc1-c1cccn2nc(Nc3cccc(C4CCN(CC(=O)N(C)C)CC4)c3)nc12` [Example 410], 0.658 µM.

A further assay has as its target human JAK2 (Homo sapiens (Human), UniProt O60674). The settings on record: read-out: JAK2 IC50.
Take `c1ccc(Nc2nc3ccccn3n2)cc1` [Example 1, Phenyl-[1,2,4]triazolo[1,5-a]pyridin-2-yl-amine]: the IC50 was found to be 1.09 µM.
Same read-out and setting: in the case of `c1cc(-c2ccncc2)c2nc(Nc3ccc(OCCN4CCCC4)cc3)nn2c1` [Example 15, (8-pyridin-4-yl-[1,2,4]triazolo[1,5-a]pyridin-2-yl)-[4-(2-pyrrolidin-1-yl-ethoxy)-phenyl]-amine] it was 3 µM.
The same measure, in the same setting: for `CS(=O)(=O)c1ccc(-c2cccn3nc(Nc4ccc(N5CCCCC5)cc4)nc23)cc1` [Example 18, [8-(4-Methanesulfonyl-phenyl)-[1,2,4]triazolo[1,5-a]pyridin-2-yl]-(4-piperidin-1-yl-phenyl)-amine] the value was 0.0006 µM.
